Patent US20250067753A1, “Protein array-based in vitro transglutaminase assay platform for epitope mapping and immunogen design” (priority 2021, published 2025)

Legend:
transglutaminase = conditions: as amine acceptor; Parameswaran, Velasco et al. 1990; cited from earlier work
[1] = molecular target: T1, guinea pig liver tissue transglutaminase (UniProt P08587); assay: Onchip in vitro TG2 assay (dansyl-cadaverine incorporation on peptide microchip); assay type: biochemical; conditions: 100 μg/ml TG2, 3 mM dansyl-cadaverine, 5 mM Calcium Chloride, 37 degree, 30 minutes; anti-dansyl antibody/Alexa Fluor 594 readout
T1 construct: guinea pig liver tissue transglutaminase (Sigma); purchased Sigma; host or cells: guinea pig liver (as named)
T1 sequence (P08587 1-690): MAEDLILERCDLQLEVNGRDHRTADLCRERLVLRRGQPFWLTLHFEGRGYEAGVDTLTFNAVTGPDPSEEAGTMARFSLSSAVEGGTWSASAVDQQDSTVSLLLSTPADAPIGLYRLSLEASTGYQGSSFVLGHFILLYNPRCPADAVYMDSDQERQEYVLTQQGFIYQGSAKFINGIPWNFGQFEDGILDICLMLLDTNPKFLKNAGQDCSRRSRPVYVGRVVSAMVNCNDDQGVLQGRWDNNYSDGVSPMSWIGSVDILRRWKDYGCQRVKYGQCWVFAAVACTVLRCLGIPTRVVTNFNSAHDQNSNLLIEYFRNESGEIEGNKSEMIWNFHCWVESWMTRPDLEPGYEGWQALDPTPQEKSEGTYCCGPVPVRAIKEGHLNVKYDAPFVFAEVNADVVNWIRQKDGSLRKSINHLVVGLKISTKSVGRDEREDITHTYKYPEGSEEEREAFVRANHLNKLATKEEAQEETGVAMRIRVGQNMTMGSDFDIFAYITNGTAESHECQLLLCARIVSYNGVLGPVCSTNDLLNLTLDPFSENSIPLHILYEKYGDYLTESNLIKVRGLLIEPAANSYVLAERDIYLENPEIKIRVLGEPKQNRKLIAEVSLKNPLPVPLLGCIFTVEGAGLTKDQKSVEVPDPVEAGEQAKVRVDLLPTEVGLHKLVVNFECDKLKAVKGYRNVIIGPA
Procedure: To identify the glutamine residues that can be modified by tissue transglutaminase on the peptide microchip, the synthesized peptide microchip was incubated with 100 μg/ml guinea pig liver tissue transglutaminase (Sigma) and 3 mM dansyl-cadaverine (Sigma) in 1 ml of TBS containing 5 mM Calcium Chloride and 1 mM DTT at 37 degree for 30 minutes. Afterwards, the peptide chip was washed at least 3 times with TBS. After washing off tissue transglutaminase and dansyl-cadaverine molecules […] the synthesized peptides, the dansyl-cadaverine conjugated on the chip was tracked by rabbit anti-dansyl antibody (Invitrogen) followed by Alexa Fluor 594-labeled anti-rabbit secondary antibody (Invitrogen). Fluorescent microchip figures were quantified and analyzed with ArrayPro32. Original array figures and data are available upon request.
To characterize the glutamine-bearing TG2 modification motifs on these synthesized peptides, dansyl-cadaverine, a well-established amine donor in transglutaminase reaction, was covalently conjugated to the glutamine residues on the peptide chip by purified TG2 with the help of calcium (FIG. 1A). […] In this way the level of dansyl-cadaverine incorporation on a certain peptide was measured by the fluorescent intensity. […]

QQIV
competitive inhibitor for the transglutaminase reaction (transglutaminase): effective competitive inhibitor
fluorescent intensity (level of dansyl-cadaverine incorporation) [1]: ~5000
